Results: publication PMC6713628 (Investigational new drugs, 2019)
Like-named read-outs stand apart in the source and are kept apart here.

What was measured:
white blood cells = assay: Emax model of percent decrease of WBC from baseline to nadir versus exposure; format: in vivo, cancer patients with solid tumors (humans)
[1] = for IIV of clearance: univariate analysis
[2] = more lipophilic than camptothecin; cited from earlier work
[3] = lactone form; ref 32 (Leggas et al., 2009); cited from earlier work
platelets = format: in vivo, cancer patients with solid tumors (humans); conditions: sigmoid Emax model
UGT1A1 = conditions: primarily hepatic UGT1A1; cited from earlier work

## CC[C@@]1(O)C(=O)OCc2c1cc1n(c2=O)Cc2c-1nc1ccc(O)cc1c2[Si](C)(C)C(C)(C)C [AR-67, 7-t-butyldimethylsilyl-10-hydroxycamptothecin]
White blood cells; AUC0-∞ as independent variable, hyperbolic Emax model, 22 patients, Cycle 1
  AUC ED50, percent decrease of WBC: 397.6 ng·h/mL
White blood cells; Cmax as independent variable, sigmoid Emax model
  Cmax ED50, percent decrease of WBC: 0.3268 µg/mL
[1]; V1=V1TV×(AGE/62)^θ, original dataset
  AGE on V1 (covariate effect exponent), estimate: 3.36
[1]; before incorporation of age into the model
  Interindividual variability in V1: 118%
[1]; bootstrap n=1000 datasets
  AGE on V1, bootstrap median: 3.48
  CL, bootstrap median: 31.9 L/h
  Q, bootstrap median: 29.0 L/h
  V1, bootstrap median: 6.65 L
  V2, bootstrap median: 25.8 L
  ω2 V1, bootstrap median: 0.856
[1]; final model
  Interindividual variability (CV%) of population CL: 29.1%
[1]; final model, original dataset
  V2 (peripheral volume), population estimate: 25.0 L
  ω2 CL (interindividual variability), estimate: 0.0849
  ω2 V1 (interindividual variability), estimate: 0.957
[1]; final model, original dataset, typical value for subjects aged 62 years
  V1 (central volume), population estimate: 6.83 L
[1]; final model, with age as covariate
  Interindividual variability (CV%) of population V1: 97.8%
[1]; BSA included as covariate on CL
  IIV of clearance: 25.5%
[1]; before inclusion of BSA
  IIV of clearance: 29.2%
[2]
  lipophilicity relative to camptothecin: about 25 times
[3]
  overall protein binding, lactone: 95.4%
platelets; AUC0-∞ as independent variable, 22 patients, Cycle 1
  AUC ED50, percent decrease of platelets: 276.8 ng·h/mL
platelets; Cmax as independent variable
  Cmax ED50, percent decrease of platelets: 0.2811 µg/mL
UGT1A1
  in vitro interaction with UGT1A1: weak
